# From patent publication US20250135050A1, “IODIDE NANOPARTICLES AND COMPOSITIONS OF METHODS OF USE THEREOF” (University of Georgia Research Foundation, Inc., priority 2021, published 2025)
# Experiments:
# MCF-7 cells = experiment: MTT cytotoxicity assay; type: cell-based; settings: FIG. 3A
# Protocol: Cells were seeded in 96 well-plates (Corning, 3599) with 10,000 cells/well. […] The cellular media was replaced with media of the appropriate concentration of materials and incubated for a further 24 hours. MTT reagent was then added in the culture medium, followed by incubation at 37° C. for 3 h and the resulting purple crystal solubilized in DMSO. The absorbance was measured on a microplate reader (SynergyMx) at 590 nm, with the measurements performed in at least triplicate.
# NIS = NIS expression by flow cytometry; type: cell-based; settings: MCF-7 cells, tRA 1 μM
# Protocol: In addition to MCF-7, MDA-MB-231 cells, which have a low expression of NIS, were analyzed as a comparison.
smiles,measurement,setting,value
I [iodide],toxicity of iodide,MCF-7 cells,little toxicity
"CC1=C(/C=C/C(C)=C/C=C/C(C)=C/C(=O)O)C(C)(C)CCC1 [tRA, Trans retinoic acid]",NIS expression,NIS,induced NIS expression
